Laboratory results: patent US20050272817A1, “Dermatological use and a dermatological preparation” (priority 2000, published 2005)

Experiments:
[1] = tested on: psoriatic plaques; experiment: Additional embodiment: topical T3A or D-T4 with or without T4A on psoriatic plaques, 35 days; type: in vivo, human; details: for effect on psoriatic rash (conclusions, in words): topically administered
Protocol: Simultaneous topical treatment of four untreated, typically scaling and demarcated dermatitic plaques (plaques 1-4) in a psoriatic patient was undertaken. Plaque 5 was left untreated for comparison.
The areas of the plaques at initiation of the treatment were as follows: plaque 1: 5.3 cm^2, plaque 2: 4.9 cm^2, plaque 3: 6.4 cm^2, plaque 4: 5.3 cm^2; plaque 5: 5.6 cm^2.
Triacana® cream containing 200 μg 3,5,3′-triiodothyroacetic acid, T3A, (triac, tiratricol) per gram.
Triacana® cream plus Locobase® unctuous cream containing 500 μg 3,3′,5,5′-tetraiodothyroacetic acid, T4A, per gram (University Pharmacy, Helsinki, Finland. Ex tempore-preparation).
Locobase® unctuous cream containing 2500 μg D-thyroxine, D-T4, per gram (University Pharmacy, Helsinki, Finland. Ex tempore-preparation).
Locobase® unctuous cream containing 2500 μg D-thyroxine, D-T4, per gram (University Pharmacy, Helsinki, Finland. Ex tempore-preparation) plus Locobase® unctuous cream containing 500 μg 3,3′,5,5′-tetraiodothyroacetic acid, T4A, per gram (University Pharmacy, Helsinki, Finland. Ex tempore-preparation).
Triacana® cream was applied to plaques 1 and 2 at 125 mg/cm^2 twice in 24 hours, corresponding to 50 μg 3,5,3′-triiodothyroacetic acid per cm^2 per 24 hours.
T4A-ointment was applied to plaque 2 concurrently with Triacana® cream at 50 mg/cm^2 twice in 24 hours, corresponding to 50 μg 3,3′,5,5′-tetraiodothyroacetic acid per cm^2 per 24 hours.
D-T4-ointment was applied to plaques 3 and 4 at 50 mg/cm^2 twice in 24 hours, corresponding to 250 μg D-T4, per cm^2 per 24 hours.
T4A-ointment was applied to plaque 4 concurrently with the D-T4-ointment at 50 mg/cm^2 twice in 24 hours corresponding to 50 μg/cm^2 3,3′,5,5′-tetraiodothyroacetic acid per cm^2 per 24 hours.
Treatment was continued in this manner for 35 days.

[2] = tested on: thyroid hormone activity; details: background statement; cited from earlier work
[3] = tested on: psoriatic plaques; experiment: Continuation of the therapeutic trial from 35 days onward (to 70 days); type: in vivo, human; details: for change (reduction) in plaque area: from day 35: plaque 2 (earlier Daivonex) no treatment, plaque 3 (earlier T4A) Locobase, plaque 4 (earlier T4A+T4) T4 ointment 5 μg/cm^2/24 h; for effect on psoriatic rash (in words): topically applied
Protocol: The therapeutic trial was continued from 35 days onward as follows:
Locobase® ointment containing […], T4, per gram (University Pharmacy, Helsinki, Finland).
As previously, the ointments were applied to the target plaques at 50 mg/cm^2 twice in 24 hours. Thus, the dose of T4 to plaque 4 was 5 μg T4 per cm^2 per 24 hours.

[4] = tested on: psoriatic plaques; experiment: Topical treatment of psoriatic plaques in a psoriatic patient, 35 days; type: in vivo, human; details: for change (reduction) in plaque area: ointment 50 mg/cm^2 twice in 24 hours
Source text: Simultaneous topical treatment of four untreated, typically scaling and sharply demarcated dermatitic plaques ([…]) in a psoriatic patient was undertaken. Plaque 5 was left untreated for comparison.
The areas of the plaques at initiation of the treatment were as follows: plaque 1: 8.7 cm^2; plaque 2: 8.1 cm^2; plaque 3: 6.8 cm^2; plaque 4: 6.1 cm^2; plaque 5: 6.4 cm^2.
The following ointments were applied to plaques 1-4:
Locobase.RTM. unctuous cream (Yamanouchi Europe B. V., Leiderup, Holland).
Daivonex.RTM. calcipotriol ointment containing 50µg calcipotriol per gram (L.o slashed.vens Kemiske Fabrik, Ballerup, Denmark).
Locobase.RTM.D unctuous cream containing 500µg 3,3′,5,5′-tetraiodothyroacetic acid, T4A, per gram (University Pharmacy, Helsinki, Finland).
Locobase.RTM. unctuous cream containing 500 μg T4A per gram and […], T4, per gram (University Pharmacy, Helsinki, Finland).
Each ointment was applied to the plaques at 50 mg/cm^2 twice in 24 hours, corresponding to 5µg calcipotriol per cm^2 per 24 hours for plaque 2, 50 μg T4A per cm^2 per 24 hours for plaques 3 and 4, and 5 μg T4 per cm^2 per 24 hours for plaque 4. Treatment was continued in this manner for 35 days.
The results are presented in Table 1 below, showing the change (reduction) in plaque area with time (days).

[5] = tested on: psoriatic plaque; experiment: Topical T4P ointment on a previously untreated psoriatic plaque; type: in vivo, human; details: T4P 25 μg/cm^2 twice per 24 hours for 35 days; follow-up 42 days
Protocol: The topical effect of T4P, 3,3′,5,5′-tetraiodothyropropionic acid ointment on a previously untreated psoriatic plaque, on psoriasis was studied in a therapeutic design identical with the above. The dosage of T4P was 25 μg/cm^2 twice per 24 hours for 35 days. The follow-up period was 42 days. […] Effect of 3,3′,5,5′-tetraiodothyropropionic acid (T4P) ointment on a previously untreated psoriatic plaque. The dosage of T4P was 25 μg/cm^2 twice per 24 hours for 35 days. The follow-up period was 42 days.

[6] = tested on: psoriasis; details: topical calcipotriol therapy; cited from earlier work

N[C@H](Cc1cc(I)c(Oc2cc(I)c(O)c(I)c2)c(I)c1)C(=O)O [D-T4, D-thyroxine]
changes in the area or appearance of the plaque during the whole treatment period ([1]; 35 days, T3A 50 μg/cm^2/24 h or D-T4 250 μg/cm^2/24 h alone): no visible changes | effect on psoriatic rash (conclusions, in words) [1]: did not have any visible effect | thyroid hormone activity relative to T4 [2]: substantially less thyroid hormone activity than T4

N[C@@H](Cc1cc(I)c(Oc2ccc(O)c(I)c2)c(I)c1)C(=O)O [T3, 3,3′,5-triiodo-L-thyronine, reference compound]
thyroid hormone activity relative to T4 [2]: five times that of T4

O=C(O)Cc1cc(I)c(Oc2ccc(O)c(I)c2)c(I)c1 [T3A, 3,5,3′-triiodothyroacetic acid]
effect on psoriatic rash (conclusions, in words) [1]: did not have any visible effect

N[C@@H](Cc1cc(I)c(Oc2cc(I)c(O)c(I)c2)c(I)c1)C(=O)O [T4, 3,3′,5,5′-tetraiodo-L-thyronine, reference compound]
change (reduction) in plaque area ([3]; 42 days): 70% | change (reduction) in plaque area ([3]; 50 days): 25% | change (reduction) in plaque area ([3]; 62 days): -10% | change (reduction) in plaque area ([3]; 70 days): −50% ^ | increase of the area of plaque 4 compared with baseline ([3]; T4 ointment 5 μg/cm^2/24 h from day 35 to day 70, plaque previously treated with T4A+T4): 50% | effect on psoriatic rash (in words) [3]: worsened

O=C(O)Cc1cc(I)c(Oc2cc(I)c(O)c(I)c2)c(I)c1 [T4A, 3,3′,5,5′-tetraiodothyroacetic acid]
change (reduction) in plaque area ([3]; 42 days): 95% | change (reduction) in plaque area ([3]; 50 days): 95% | change (reduction) in plaque area ([3]; 62 days): 90% | change (reduction) in plaque area ([3]; 70 days): 80% | inhibition of the rash-worsening effect of T4 ([3]; topical T4A 50 μg/cm^2/24 h with T4 5 μg/cm^2/24 h): completely inhibits this effect | effect on psoriatic rash (in words) [3]: therapeutically efficacious | effect on psoriatic rash (conclusions, in words) [1]: separate and prominent antipsoriatic effect | thyroid hormone activity relative to T4 [2]: about one-fourth | change (reduction) in plaque area ([4]; 14 days): 45% | change (reduction) in plaque area ([4]; 21 days): 65% | change (reduction) in plaque area ([4]; 28 days): 85% | effect on psoriatic plaques (in words) ([4]; 35 days topical treatment): clear effect | therapeutic efficacy in terms of reduction in plaque area, compared with calcipotriol ointment ([4]; 35 days topical treatment): better than that of the calcipotriol ointment | change (reduction) in plaque area ([4]; 35 days): 90%

O=C(O)CCc1cc(I)c(Oc2cc(I)c(O)c(I)c2)c(I)c1 [T4P, 3,3′,5,5′-tetraiodothyropropionic acid]
thyroid hormone activity relative to T4 [2]: about one-fourth | inhibition of the effects of T4 [5]: completely inhibit the effects of T4 | therapeutic efficacy compared with T4A [5]: equal to T4A in therapeutic efficacy

C=C1/C(=C\C=C2/CCC[C@]3(C)[C@@H]([C@H](C)/C=C/[C@@H](O)C4CC4)CC[C@@H]23)C[C@@H](O)C[C@@H]1O [calcipotriol]
complete removal of dermatitic plaques, share of cases [6]: about 15%
